Laboratory results published in article PMC8330742, “New benzothieno[2,3-c]pyridines as non-steroidal CYP17 inhibitors: design, synthesis, anticancer screening, apoptosis induction, and in silico ADME profile studies” (Journal of Enzyme Inhibition and Medicinal Chemistry, 2021).

Columns and labels:
[1] = system: ACHN; assay: NCI-60 SRB screen; format: cell-based; details: Homo sapiens, single dose 10^−5 M, Renal cancer, read-out: Growth inhibition (%)
[2] = system: SR; assay: NCI-60 SRB screen; format: cell-based; details: Homo sapiens, single dose 10^−5 M, Leukaemia, read-out: Growth inhibition (%)
[3] = system: HCT-15; assay: NCI-60 SRB screen; format: cell-based, human; details: Homo sapiens; single dose 10^−5 M; HCT-15, Colon cancer; read-out: Growth inhibition (%)
[4] = system: HOP-62; assay: NCI-60 SRB screen; format: cell-based, human; details: Homo sapiens; single dose 10^−5 M; HOP-62, Non-small cell lung carcinoma; read-out: Growth inhibition (%)
[5] = system: NCI-H460; assay: NCI-60 SRB screen; format: cell-based, human; details: Homo sapiens; single dose 10^−5 M; NCI-H460, Non-small cell lung carcinoma; read-out: Growth inhibition (%)
[6] = system: LOX IMVI; assay: NCI-60 SRB screen; format: cell-based, human; details: Homo sapiens, single dose 10^−5 M, Melanoma, read-out: Growth inhibition (%)
[7] = system: KM12; assay: NCI-60 SRB screen; format: cell-based, human; details: Homo sapiens; single dose 10^−5 M; KM12, Colon cancer; read-out: Growth inhibition (%)
[8] = system: COLO 205; assay: NCI-60 SRB screen; format: cell-based, human; details: Homo sapiens; single dose 10^−5 M; COLO 205, Colon cancer; read-out: Growth inhibition (%)
[9] = system: EKVX; assay: NCI-60 SRB screen; format: cell-based, human; details: Homo sapiens, single dose 10^−5 M, Non-small cell lung carcinoma, read-out: Growth inhibition (%)
[10] = system: OVCAR-3; assay: NCI-60 SRB screen; format: cell-based, human; details: Homo sapiens; single dose 10^−5 M; OVCAR-3, Ovarian cancer; read-out: Growth inhibition (%)
[11] = system: SK-MEL-5; assay: NCI-60 SRB screen; format: cell-based, human; details: Homo sapiens; single dose 10^−5 M; SK-MEL-5, Melanoma; read-out: Growth inhibition (%)
[12] = system: A549/ATCC; assay: NCI-60 SRB screen; format: cell-based, human; details: Homo sapiens, single dose 10^−5 M, Non-small cell lung carcinoma, read-out: Growth inhibition (%)
[13] = system: K-562; assay: NCI-60 SRB screen; format: cell-based, human; details: Homo sapiens, K562; single dose 10^−5 M; K-562, Leukaemia; read-out: Growth inhibition (%)
[14] = system: NCI-H322M; assay: NCI-60 SRB screen; format: cell-based, human; details: Homo sapiens, single dose 10^−5 M, Non-small cell lung carcinoma, read-out: Growth inhibition (%)
[15] = system: HCC-2998; assay: NCI-60 SRB screen; format: cell-based, human; details: Homo sapiens; single dose 10^−5 M; HCC-2998, Colon cancer; read-out: Growth inhibition (%)
[16] = system: HOP-92; assay: NCI-60 SRB screen; format: cell-based, human; details: Homo sapiens; single dose 10^−5 M; HOP-92, Non-small cell lung carcinoma; read-out: Growth inhibition (%)
[17] = system: OVCAR-8; assay: NCI-60 SRB screen; format: cell-based, human; details: Homo sapiens; single dose 10^−5 M; OVCAR-8, Ovarian cancer; read-out: Growth inhibition (%)
[18] = system: SK-MEL-28; assay: NCI-60 SRB screen; format: cell-based; details: Homo sapiens; single dose 10^−5 M; SK-MEL-28, Melanoma; read-out: Growth inhibition (%)
[19] = system: SK-MEL-2; assay: NCI-60 SRB screen; format: cell-based, human; details: Homo sapiens; single dose 10^−5 M; SK-MEL-2, Melanoma; read-out: Growth inhibition (%)
[20] = system: HL-60(TB); assay: NCI-60 SRB screen; format: cell-based, human; details: Homo sapiens; single dose 10^−5 M; HL-60(TB), Leukaemia; read-out: Growth inhibition (%)
[21] = system: SW-620; assay: NCI-60 SRB screen; format: cell-based; details: Homo sapiens; single dose 10^−5 M; SW-620, Colon cancer; read-out: Growth inhibition (%)
[22] = system: SF-295; assay: NCI-60 SRB screen; format: cell-based, human; details: Homo sapiens; single dose 10^−5 M; SF-295, CNS cancer; read-out: Growth inhibition (%)
[23] = system: HCT-116; assay: NCI-60 SRB screen; format: cell-based, human; details: Homo sapiens; single dose 10^−5 M; HCT-116, Colon cancer; read-out: Growth inhibition (%)
[24] = system: UACC-257; assay: NCI-60 SRB screen; format: cell-based, human; details: Homo sapiens; single dose 10^−5 M; UACC-257, Melanoma; read-out: Growth inhibition (%)
[25] = system: MOLT-4; assay: NCI-60 SRB screen; format: cell-based; details: Homo sapiens; single dose 10^−5 M; MOLT-4, Leukaemia; read-out: Growth inhibition (%)
[26] = system: NCI-H226; assay: NCI-60 SRB screen; format: cell-based, human; details: Homo sapiens; single dose 10^−5 M; NCI-H226, Non-small cell lung carcinoma; read-out: Growth inhibition (%)
[27] = system: SF-268; assay: NCI-60 SRB screen; format: cell-based, human; details: Homo sapiens; single dose 10^−5 M; SF-268, CNS cancer; read-out: Growth inhibition (%)
[28] = system: MDA-MB-435; assay: NCI-60 SRB screen; format: cell-based; details: Homo sapiens, MDA-MB-435, read-out: Growth inhibition (%)
[29] = system: OVCAR-4; assay: NCI-60 SRB screen; format: cell-based, human; details: Homo sapiens; single dose 10^−5 M; OVCAR-4, Ovarian cancer; read-out: Growth inhibition (%)
[30] = system: UO-31; assay: NCI-60 SRB screen; format: cell-based, human; details: Homo sapiens; single dose 10^−5 M; UO-31, Renal cancer; read-out: Growth inhibition (%)
[31] = system: TK-10; assay: NCI-60 SRB screen; format: cell-based, human; details: Homo sapiens; single dose 10^−5 M; TK-10, Renal cancer; read-out: Growth inhibition (%)
[32] = system: CAKI-1; assay: NCI-60 SRB screen; format: cell-based, human; details: Homo sapiens; single dose 10^−5 M; CAKI-1, Renal cancer; read-out: Growth inhibition (%)
[33] = system: CCRF-CEM; assay: NCI-60 SRB screen; format: cell-based; details: Homo sapiens, single dose 10^−5 M, Leukaemia, read-out: Growth inhibition (%)
[34] = system: IGROV1; assay: NCI-60 SRB screen; format: cell-based, human; details: Homo sapiens, IGROV-1; single dose 10^−5 M; IGROV1, Ovarian cancer; read-out: Growth inhibition (%)
[35] = system: SN12C; assay: NCI-60 SRB screen; format: cell-based, human; details: Homo sapiens, SN12C; single dose 10^−5 M; SN 12 C, Renal cancer; read-out: Growth inhibition (%)
[36] = system: M14; assay: NCI-60 SRB screen; format: cell-based, human; details: Homo sapiens; single dose 10^−5 M; M14, Melanoma; read-out: Growth inhibition (%)
[37] = system: NCI-H522; assay: NCI-60 SRB screen; format: cell-based, human; details: Homo sapiens; single dose 10^−5 M; NCI-H522, Non-small cell lung carcinoma; read-out: Growth inhibition (%)
[38] = system: NCI-H23; assay: NCI-60 SRB screen; format: cell-based, human; details: Homo sapiens; single dose 10^−5 M; NCI-H23, Non-small cell lung carcinoma; read-out: Growth inhibition (%)
[39] = system: RXF 393; assay: NCI-60 SRB screen; format: cell-based, human; details: Homo sapiens; single dose 10^−5 M; RXF 393, Renal cancer; read-out: Growth inhibition (%)
[40] = system: UACC-62; assay: NCI-60 SRB screen; format: cell-based, human; details: Homo sapiens; single dose 10^−5 M; UACC-62, Melanoma; read-out: Growth inhibition (%)
[41] = system: SK-OV-3; assay: NCI-60 SRB screen; format: cell-based, human; details: Homo sapiens; single dose 10^−5 M; SK-OV-3, Ovarian cancer; read-out: Growth inhibition (%)
[42] = system: panel of 60 cancer cell lines; assay: NCI-60 SRB screen, mean or range over the panel; format: cell-based, human; details: Homo sapiens; mean over the cell lines; single dose 10^−5 M; read-out: Mean growth inhibition (%)
[43] = system: NCI/ADR-RES; assay: NCI-60 SRB screen; format: cell-based, human; details: Homo sapiens, single dose 10^−5 M, Ovarian cancer, read-out: Growth inhibition (%)
[44] = system: 786-0; assay: NCI-60 SRB screen; format: cell-based; details: Homo sapiens; single dose 10^−5 M; 786-0, Renal cancer; read-out: Growth inhibition (%)

CCN1CCN(C2=C(Cl)c3c(sc4c(F)cccc34)C(c3cccc([N+](=O)[O-])c3)N2)CC1 (stereo not shown) [Compound 8a, 4-Chloro-3–(4-ethylpiperzin-1-yl)-8-fluoro-1-(3-nitrophenyl)-1,2-dihydro [1]benzothieno[2,3-c]pyridine]
inhibition at 10 µM [1]: 9.21% | inhibition at 10 µM [2]: 23.5% | inhibition at 10 µM [3]: 2.5% | inhibition at 10 µM [4]: 3.76% | inhibition at 10 µM [5]: 0.6% | inhibition at 10 µM [6]: 6.7% | inhibition at 10 µM [7]: -1.16% | inhibition at 10 µM [8]: -11.9% | inhibition at 10 µM [9]: 4.5% | inhibition at 10 µM [10]: 1.03% | inhibition at 10 µM [11]: -14.1% | inhibition at 10 µM [12]: 1.8% | inhibition at 10 µM [13]: 13.2% | inhibition at 10 µM [14]: -1.6% | inhibition at 10 µM [15]: -2.53% | inhibition at 10 µM [16]: 10.7% | inhibition at 10 µM [17]: 2.09% | inhibition at 10 µM [18]: -10.8% | inhibition at 10 µM [19]: 3.85% | inhibition at 10 µM [20]: -9.32% | inhibition at 10 µM [21]: 4.03% | inhibition at 10 µM [22]: 0.4% | inhibition at 10 µM [23]: 15% | inhibition at 10 µM [24]: -7.62% | inhibition at 10 µM [25]: 5.94% | inhibition at 10 µM [26]: 17% | inhibition at 10 µM [27]: 7.38% | inhibition at 10 µM [28]: -6.27% | inhibition at 10 µM [29]: 3.25% | inhibition at 10 µM [30]: 35.8% | inhibition at 10 µM [31]: -41.7% | inhibition at 10 µM [32]: 21.9% | inhibition at 10 µM [33]: 1.89% | inhibition at 10 µM [34]: 23.8% | inhibition at 10 µM [35]: 2.25% | inhibition at 10 µM [36]: 6.73% | inhibition at 10 µM [37]: 14.3% | inhibition at 10 µM [38]: 7.1% | inhibition at 10 µM [39]: -2.44% | inhibition at 10 µM [40]: 11.6% | inhibition at 10 µM [41]: 1.74% | inhibition at 10 µM [42]: -0.2% | inhibition at 10 µM [43]: -1.63% | inhibition at 10 µM [44]: -7.31%

O=[N+]([O-])c1cccc(C2NC(N3CCOCC3)=C(Cl)c3c2sc2c(F)cccc32)c1 (stereo not shown) [Compound 8b, 4-Chloro-3-(4-morpholino)-8-fluoro-1-(3-nitrophenyl)-1,2-dihydro [1]benzothieno[2,3-c]pyridine]
inhibition at 10 µM [1]: 9.98% | inhibition at 10 µM [2]: 20.4% | inhibition at 10 µM [3]: 4.11% | inhibition at 10 µM [4]: 16.1% | inhibition at 10 µM [5]: 6.4% | inhibition at 10 µM [6]: 8.33% | inhibition at 10 µM [7]: 6.99% | inhibition at 10 µM [8]: -12.9% | inhibition at 10 µM [9]: 14.3% | inhibition at 10 µM [10]: 2.72% | inhibition at 10 µM [11]: -8.74% | inhibition at 10 µM [12]: -0.74% | inhibition at 10 µM [13]: 18.6% | inhibition at 10 µM [14]: 0.04% | inhibition at 10 µM [15]: -13.5% | inhibition at 10 µM [16]: 22.2% | inhibition at 10 µM [17]: 1.71% | inhibition at 10 µM [18]: -7.54% | inhibition at 10 µM [19]: 8.89% | inhibition at 10 µM [20]: -10.1% | inhibition at 10 µM [21]: 7.44% | inhibition at 10 µM [22]: 4.37% | inhibition at 10 µM [23]: 25.3% | inhibition at 10 µM [24]: -3.74% | inhibition at 10 µM [25]: 13.6% | inhibition at 10 µM [26]: 20.9% | inhibition at 10 µM [27]: 7.66% | inhibition at 10 µM [28]: -2.51% | inhibition at 10 µM [29]: 13.5% | inhibition at 10 µM [30]: 38.6% | inhibition at 10 µM [31]: -39.7% | inhibition at 10 µM [32]: 32.5% | inhibition at 10 µM [33]: 5% | inhibition at 10 µM [34]: 16.2% | inhibition at 10 µM [35]: 3.71% | inhibition at 10 µM [36]: 7.49% | inhibition at 10 µM [37]: 17.3% | inhibition at 10 µM [38]: 5.35% | inhibition at 10 µM [39]: 11.9% | inhibition at 10 µM [40]: 17.5% | inhibition at 10 µM [41]: -1.6% | inhibition at 10 µM [42]: 6.1% | inhibition at 10 µM [43]: 1.45% | inhibition at 10 µM [44]: -6.62%
